Data set [1] in a line: EXSY NOESY conformational exchange (E/Z isomerization). In kind it is physicochemical. The text has this: With synthetic glucosepane (5) in hand, we next investigated its structural features using multidimensional NMR techniques. […] Indeed, although the original glucosepane isolation report did note the possibility of E/Z isomerism in acyclic 2-amino imidazoles, the presence of these exchange peaks in the case of glucosepane have previously been incorrectly attributed to stereoisomerism at the C-8a stereocenter.^(35) Using an EXSY (EXchange SpectroscopY) NOESY sequence,^(34) the inventors were able to calculate an approximate rate for this conformational exchange process on the order of 3 s^−1 in D2O.^28
The integral ratios and tm were used to calculate an approximate rate by the following formula:^5
[formula] Xa=mole fraction of conformer A Xb=mole fraction of conformer B Iaa=integral intensity for diagonal peak (conformer A) Ibb=integral intensity for diagonal peak (conformer B) Iab and Iba=integral intensity for cross-peak Sample calculation with the data provided above: […]

Data set [2] in a line: Glucosepane pKa study (UV pH titration). The text has this:
The inventors next took advantage of glucospane's intrinsic spectral properties to measure the pKa of the iso-imidazole core.

The nature of data set [3]: Hydrogen/deuterium exchange at C-8a in D2O. In kind it is physicochemical. The following applies: basic conditions (aqueous NaOD), either epimer.

Bounds are passed on as bounds.

The term pKa denotes the negative logarithm of the acid dissociation constant. Regarding `N[C@@H](CCCCN1C[C@@H](O)[C@@H](O)C[C@@H]2N=C(NCCC[C@H](N)C(=O)O)N=C21)C(=O)O` (stereo in doubt) [Compound 5, Glucosepane Tris-Trifluoroacetate], in data set [1] (in D2O, EXSY NOESY), the “approximate rate of conformational exchange (E/Z isomerization about exocyclic C2-N bond)” value is about 3 s⁻¹. In data set [2], the pKa was about 12. The “time for quantitative hydrogen/deuterium exchange at the C-8a H-atom” value in data set [3] is under 60 min.

For `N[C@@H](CCCCN1C[C@@H](O)[C@@H](O)C[C@@H]2N=C(NCCC[C@H](N)C(=O)O)N=C21)C(=O)O` [Compound 5, Glucosepane Tris-Trifluoroacetate], the “k” value in data set [1] (sample calculation from 2D NOESY integrals, tm 1.00 sec) is 2.89 s⁻¹.

The values above are taken from US10526339B2, “Substituted glucosepanes and compositions thereof” (YALE UNIVERSITY, priority 2015, dated 2020).
